Counter-ions that a name gives are not always drawn.
Target: T1, recombinant human GSK3β (Homo sapiens, UniProt P49841)
T1 construct: purchased Dundee University, UK
Assay: GSK3β Scintillation Proximity Assay (ATP competition)
Assay type: biochemical
Conditions: inhibition constants calculated with Km of ATP for GSK3β of 20 μM; 1 μM ATP, 1 μM biotinylated peptide substrate
Description: Determination of ATP Competition in Scintillation Proximity GSK3β Assay.
GSK3β Scintillation Proximity Assay.
The competition experiments were carried out in duplicate with 10 different concentrations of the inhibitors in clear-bottom microtiter plates (Wallac, Finland). A biotinylated peptide substrate, Biotin-Ala-Ala-Glu-Glu-Leu-Asp-Ser-Arg-Ala-Gly-Ser(PO3H2)-Pro-Gln-Leu (AstraZeneca, Lund), was added at a final concentration of 1 μM in an assay buffer containing 1 mU recombinant human GSK3β (Dundee University, UK), 12 mM morpholinepropanesulfonic acid (MOPS), pH 7.0, 0.3 mM EDTA, 0.01% β-mercaptoethanol, 0.004% Brij 35 (a […] detergent), 0.5% glycerol and 0.5 μg BSA/25 μl. The reaction was initiated by the addition of 0.04 μCi [γ-^33P]ATP (Amersham, UK) and unlabelled ATP at a final concentration of 1 μM and assay volume of 25 μl. After incubation for 20 minutes at room temperature, each reaction was terminated by the addition of 25 μl stop solution containing 5 mM EDTA, 50 μM ATP, 0.1% Triton X-100 and 0.25 mg streptavidin coated Scintillation Proximity Assay (SPA) beads (Amersham, UK). After 6 hours the radioactivity was determined in a liquid scintillation counter (1450 MicroBeta Trilux, Wallac). The inhibition curves were analysed by non-linear regression using GraphPad Prism, USA. The Km value of ATP for GSK3β, used to calculate the inhibition constants (Ki) of the various compounds, was 20 μM.

T1 sequence (P49841 whole entry): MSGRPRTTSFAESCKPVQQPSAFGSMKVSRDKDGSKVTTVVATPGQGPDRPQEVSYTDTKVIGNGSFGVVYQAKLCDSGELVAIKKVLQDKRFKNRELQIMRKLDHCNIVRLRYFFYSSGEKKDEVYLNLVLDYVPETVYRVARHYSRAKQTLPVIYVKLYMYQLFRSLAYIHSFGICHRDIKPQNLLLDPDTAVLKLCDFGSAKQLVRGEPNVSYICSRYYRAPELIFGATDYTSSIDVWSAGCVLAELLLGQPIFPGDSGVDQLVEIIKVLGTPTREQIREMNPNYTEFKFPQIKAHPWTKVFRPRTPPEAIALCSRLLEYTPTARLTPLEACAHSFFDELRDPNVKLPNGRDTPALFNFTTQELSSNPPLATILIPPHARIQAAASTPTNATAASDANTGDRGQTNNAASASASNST

Structure (SMILES) | Ki [nM]
Cc1ncc(-c2nc(Nc3cnc(C(=O)N4CCC4)c(Cl)c3)ncc2F)n1C1CCOCC1 [Example 42, Azetidin-1-yl-[3-chloro-5-[[5-fluoro-4-[2-methyl-3-(oxan-4-yl)imidazol-4-yl]pyrimidin-2-yl]amino]pyridin-2-yl]methanone] | 11
CCCN(CC1CC1)C(=O)c1ccc(Nc2ncc(F)c(-c3cnc(C)n3C3CCOCC3)n2)cn1 [Example 35] | 20
Cc1ncc(-c2nc(Nc3ccc(C(=O)N(C(C)C)C(C)C)nc3)ncc2F)n1C1CCOCC1 [Example 22, 5-[[5-Fluoro-4-[2-methyl-3-(oxan-4-yl)imidazol-4-yl]pyrimidin-2-yl]amino]-N,N-dipropan-2-yl-pyridine-2-carboxamide] | 67
Cc1ncc(-c2nc(Nc3ccc(S(C)(=O)=O)nc3)ncc2F)n1C1CCOCC1 [Example 2, 5-Fluoro-N-[6-(methylsulfonyl)pyridin-3-yl]-4-[2-methyl-1-(tetrahydro-2H-pyran-4-yl)-1H-imidazol-5-yl]pyrimidin-2-amine] | 40
Cc1ncc(-c2nc(Nc3ccc(S(=O)(=O)NCC(F)(F)F)nc3)ncc2F)n1C1CCOCC1 [Example 52] | 39
CCCN(CCC)C(=O)c1ccc(Nc2ncc(F)c(-c3cnc(C)n3C3CCOCC3)n2)cn1 [Example 24, 5-[[5-Fluoro-4-[2-methyl-3-(oxan-4-yl)imidazol-4-yl]pyrimidin-2-yl]amino]-N,N-dipropyl-pyridine-2-carboxamide] | 24
Cc1ncc(-c2nc(Nc3ccc(C(=O)N4CCN(Cc5ccccc5)CC4)nc3)ncc2F)n1C1CCOCC1 [Example 28, (4-Benzylpiperazin-1-yl)-[5-[[5-fluoro-4-[2-methyl-3-(oxan-4-yl)imidazol-4-yl]pyrimidin-2-yl]amino]pyridin-2-yl]methanone] | 19
Cc1ncc(-c2nc(Nc3ccc(C(=O)NCC(C)(C)CN(C)C)nc3)ncc2F)n1C1CCOCC1 [Example 39, N-(3-Dimethylamino-2,2-dimethyl-propyl)-5-[[5-fluoro-4-[2-methyl-3-(oxan-4-yl)imidazol-4-yl]pyrimidin-2-yl]amino]pyridine-2-carboxamide] | 160
CCCN(C(=O)c1ccc(Nc2ncc(F)c(-c3cnc(C)n3C3CCOCC3)n2)cn1)C(C)CC (stereo not drawn) [Example 12, N-Butan-2-yl-5-[[5-fluoro-4-[2-methyl-3-(oxan-4-yl)imidazol-4-yl]pyrimidin-2-yl]amino]-N-propyl-pyridine-2-carboxamide] | 29
CN1CCN(C(=O)c2ncc(Nc3ncc(F)c(-c4cnc(C(F)(F)F)n4C4CCOCC4)n3)cc2Cl)CC1 [Example 43, [3-Chloro-5-[[5-fluoro-4-[3-(oxan-4-yl)-2-(trifluoromethyl)imidazol-4-yl]pyrimidin-2-yl]amino]pyridin-2-yl]-(4-methylpiperazin-1-yl)methanone] | 23
COc1ncc(Nc2ncc(F)c(-c3cnc(C)n3C3CCOCC3)n2)cn1 [Example 11, {5-Fluoro-4-[2-methyl-3-(tetrahydro-pyran-4-yl)-3H-imidazol-4-yl]-pyrimidin-2-yl}-(2-methoxy-pyrimidin-5-yl)-amine] | 60
CN1CCN(C(=O)c2ncc(Nc3ncc(F)c(-c4cnc(C(F)(F)F)n4C)n3)cc2Cl)CC1 [Example 44, [3-Chloro-5-[[5-fluoro-4-[3-methyl-2-(trifluoromethyl)imidazol-4-yl]pyrimidin-2-yl]amino]pyridin-2-yl]-(4-methylpiperazin-1-yl)methanone] | 55

Second part, the compound after the results:

Ki [nM] | Structure (SMILES)
18 | Cc1ncc(-c2nc(Nc3cnc(C(=O)N4CCCCC4)c(Cl)c3)ncc2F)n1C [Example 55, N-[5-Chloro-6-(piperidin-1-ylcarbonyl)pyridin-3-yl]-4-(1,2-dimethyl-1H-imidazol-5-yl)-5-fluoropyrimidin-2-amine hydrochloride]
41 | Cc1ncc(-c2nc(Nc3ccc(C(=O)N4C(C)CCCC4C)nc3)ncc2F)n1C1CCOCC1 (stereo not drawn) [Example 23, (2,6-Dimethyl-1-piperidyl)-[5-[[5-fluoro-4-[2-methyl-3-(oxan-4-yl)imidazol-4-yl]pyrimidin-2-yl]amino]pyridin-2-yl]methanone]
39 | Cc1ncc(-c2nc(Nc3ccc(C(=O)N4CCC4)nc3)ncc2F)n1C [Example 46, N-[6-(Azetidin-1-ylcarbonyl)pyridin-3-yl]-4-(1,2-dimethyl-1H-imidazol-5-yl)-5-fluoropyrimidin-2-amine]
100 | Cc1ncc(-c2nc(Nc3ccc(C(=O)N4CCN(C)CC4)nc3)ncc2F)n1C [Example 47, 4-(1,2-Dimethyl-1H-imidazol-5-yl)-5-fluoro-N-{6-[(4-methylpiperazin-1-yl)carbonyl]pyridin-3-yl}pyrimidin-2-amine]
70 | Cc1ncc(-c2nc(Nc3ccc(C(=O)N4CCC4)nc3)ncc2F)n1C1CCOCC1 [Example 5, N-[6-(Azetidin-1-ylcarbonyl)pyridin-3-yl]-5-fluoro-4-[2-methyl-1-(tetrahydro-2H-pyran-4-yl)-1H-imidazol-5-yl]pyrimidin-2-amine]
34 | Cc1ncc(-c2nc(Nc3ccc(C(=O)N4CCC(F)(F)C4)nc3)ncc2F)n1C1CCOCC1 [Example 13, (3,3-Difluoropyrrolidin-1-yl)-[5-[[5-fluoro-4-[2-methyl-3-(oxan-4-yl)imidazol-4-yl]pyrimidin-2-yl]amino]pyridin-2-yl]methanone]
34 | Cc1ncc(-c2nc(Nc3ccc(C(=O)N4CCC(F)(F)CC4)nc3)ncc2F)n1C1CCOCC1 [Example 29, (4,4-Difluoro-1-piperidyl)-[5-[[5-fluoro-4-[2-methyl-3-(oxan-4-yl)imidazol-4-yl]pyrimidin-2-yl]amino]pyridin-2-yl]methanone]
28 | Cc1ncc(-c2nc(Nc3ccc(C(=O)N4CCC(C)CC4)nc3)ncc2F)n1C1CCOCC1 [Example 27, [5-[[5-Fluoro-4-[2-methyl-3-(oxan-4-yl)imidazol-4-yl]pyrimidin-2-yl]amino]pyridin-2-yl]-(4-methyl-1-piperidyl)methanone]
50 | CCN1CCN(C(=O)c2ccc(Nc3ncc(F)c(-c4cnc(C)n4C4CCOCC4)n3)cn2)CC1 [Example 17, (4-Ethylpiperazin-1-yl)-[5-[[5-fluoro-4-[2-methyl-3-(oxan-4-yl)imidazol-4-yl]pyrimidin-2-yl]amino]pyridin-2-yl]methanone]
43 | Cc1ncc(-c2nc(Nc3ccc(C(=O)N(C)C(C)C)nc3)ncc2F)n1C1CCOCC1 [Example 15, 5-[[5-Fluoro-4-[2-methyl-3-(oxan-4-yl)imidazol-4-yl]pyrimidin-2-yl]amino]-N-methyl-N-propan-2-yl-pyridine-2-carboxamide]
32 | Cn1c(-c2nc(Nc3cnc(C(=O)N4CCC4)c(Cl)c3)ncc2F)cnc1C(F)(F)F [Example 45, Azetidin-1-yl-[3-chloro-5-[[5-fluoro-4-[3-methyl-2-(trifluoromethyl)imidazol-4-yl]pyrimidin-2-yl]amino]pyridin-2-yl]methanone hydrochloride]
33 | Cc1ncc(-c2nc(Nc3ccc(C(=O)N4CCC(F)CC4)nc3)ncc2F)n1C1CCOCC1 [Example 32, [5-[[5-Fluoro-4-[2-methyl-3-(oxan-4-yl)imidazol-4-yl]pyrimidin-2-yl]amino]pyridin-2-yl]-(4-fluoro-1-piperidyl)methanone]
